Reference: paper PMC10685318, “Trans-cyclosulfamidate mannose-configured cyclitol allows isoform-dependent inhibition of GH47 α-D-mannosidases through a bump–hole strategy” (Chemical Science, 2023)
Positions count from the first letter of the chain named. Numbers in names are those of the source. Blank lines part the entries; values can stand above or below the molecule they belong to.

Key:
[1] = Chemical stability of the final compounds on storage; type: physicochemical; conditions: storage for a week at room temperature
Source text: 1,6-Cis-manno-cyclosulfate, 4, and 1,6-trans-manno-cyclosulfate, 5, were synthesized from mannose-configured cis-diol and trans-diol, respectively (ESI, Scheme S1 ^†).

[2] = target: GH47 model enzyme from Caulobacter K31 strain; conditions: cited from earlier work
[3] = substrate: OC[C@H]1O[C@H](O[C@@H]2C(O)O[C@H](CO)[C@@H](O)[C@@H]2O)[C@@H](O)[C@@H](O)[C@@H]1O; assay: purified protein, by the assay type; conditions: other: CkGH47 WT, substrate; pH 7.0
[4] = substrate: OC[C@H]1O[C@H](O[C@@H]2C(O)O[C@H](CO)[C@@H](O)[C@@H]2O)[C@@H](O)[C@@H](O)[C@@H]1O; assay: purified protein, by the assay type; type: biochemical, Caulobacter K31 strain; conditions: other: CkGH47 L310S, substrate; pH 7.0
Method: Fig. 4 Catalytic activity of CkGH47 WT compared to the CkGH47 L310S mutant. […] (C) The Ki, derived from the gradient (1/Ki), for 6 against CkGH47 L310S.
Trans-Cyclosulfamidate Cyclitols Males et al.
2.1 Biochemical and biological methods
To obtain Michaelis-Menten kinetics
Lastly, to achieve an inhibition constant, the
The gradient of the graph, V0/Vi
After taking each time point, the sample was heat denatured at 95 °C for 5 minutes. The reactions were conducted in triplicate and averaged. […]
microplate spectrophotometer (BioTek). The mannose detection kit (Megazyme) was used to detect […]
dehydrogenase, was monitored at 340 nm. The absorbance after hexokinase was added to the mixture […]
2.1.2 Isothermal titration calorimetry
MicroCal ITC200 calorimeter at 25 °C over 20 injections. The experiment was duplicated to obtain a […]
the MicroCal PEAK-ITC analysis software.
2.2 Crystallographic data collection and refinement of CkGH47
3′ and the reverse primer was 5′-[…]-3′. Protein production and purification was followed as described previously.[3]
Reference data in the form of a
Refinement of the model was conducted […]
conformation was conducted using […]. Details of the data collection and refinement statistics […]
Figures of the structure were produced by using CCP4mg.

stability on storage [1]: compound degradation
Molecule: O=S1(=O)O[C@@H]2[C@@H](O)[C@@H](O)[C@H](O)[C@@H](CO)[C@@H]2O1 [compound 4, 1,6-cis-manno-cyclosulfate]

Molecule: O=C1N[C@@H]2[C@@H](O)[C@@H](O)[C@H](O)[C@@H](CO)N2C1=O [kifunensine]
Kd [2]: 39 nM

Molecule: OC[C@H]1NC[C@@H](O)[C@@H](O)[C@@H]1O [DMJ, 1-deoxymannojirimycin]
Kd [2]: 481 nM

Molecule: OC[C@@H]1[C@@H](O)[C@H](O)[C@H](O)c2nccn21 [mannoimidazole]
Kd [2]: 47 nM

stability on storage [1]: compound degradation
Molecule: O=S1(=O)O[C@@H]2[C@@H](O)[C@@H](O)[C@H](O)[C@@H](CO)[C@H]2O1 [compound 5, 1,6-trans-manno-cyclosulfate]

B1: CkGH47 WT (Caulobacter sp. K31) (protein)
chain: AAETTPEDWKALAADVRSEFQWAWQGYVAKAWGKDEINPVSGTSRSFFIEGHDLGLSLVEALDTLWIMGLDAEFQAGVDWVKANLSFDVDGNAQVFETNIRLVGGLLSAHLASGDPVLLAKARDLADRLAKAFEASPHGLPWRYVNLRTGAVSDPETNLAEIGTYLSEFGVLSQLTGERKYFDMAKRAMRHTLDRRSKIGLMAANIHAMTGAFTSRNASIDVYADSFYEYLWDAWALFGDEDCKRWAVECVDAQLAHQAKRYDGRLWFPMVDFETGAVTGTAQSELAAYYAGLLGQVGRKAQGDDYLASFTYLQATFGVIPESIDVTTGQPRRKHTGLRPEYPDACLNLWLIDRDPRYRRLAAIHYREMKATSRAAFGYTALKDITTRPMTQDDNCPGYWWSEQMKYYYLLFSDTPRIDYGQLQLSTEANVLRGFRKV
Km [3]: 65.7 ± 14.2 µM

B2: CkGH47 L310S (Caulobacter sp. K31; L310S) (protein)
chain: B1 chain with L286S
Km [4]: 402.8 ± 71.3 µM
